Data published in paper PMC7531004, “Discovery of gramicidin A analogues with altered activities by multidimensional screening of a one-bead-one-compound library” (Nature Communications, 2020).
Where a SMILES comes first, the peptide text is derived from it. [ ]: non-standard residue; d: D form. The star is where a group is joined. NHCH2CH2OH = OCCN*; For = O=C*

Tests used:
[1] = system: P388 mouse leukemia cells; settings: 92 h
In short: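 P388 cells at 1 × 10^4 cells/mL (final) were exposed to library peptides (stocks diluted 250-fold in RPMI1640/10% FBS) for 92 h at 37 °C, 5% CO2. Viable cells were counted by WST-1/1-methoxy PMS (4 h), absorbance 415 nm, and expressed as cell viability (%).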

[2] = system: Streptococcus pyogenes SSI-9; experiment: Antibacterial activity assay of bead-derived peptides (three concentrations); type: cell-based; set-up: key: +++: inhibition by the 640-fold diluted peptide solution; ++: inhibition by the 160-fold diluted solution; +: inhibition by the 40-fold diluted solution; -: no inhibition; settings: S. pyogenes, bead-derived peptide solution, three concentrations
In short: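 Library peptide stock applied undiluted, 4-fold and 16-fold diluted in DMSO to S. pyogenes SSI-9 (2 × 10^5 CFU) in cation-adjusted Mueller Hinton broth with 5% laked horse blood. After 18 h at 37 °C, growth judged by visible cell precipitation.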

[3] = H+/Na+ transport assay of bead-derived peptides (one-point); type: biochemical; set-up: key: relative activity; mean of two control wells = 1.00; settings: bead-derived peptide solution, EYPC/EYPG LUVs;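 also: relative to parent gramicidin A activity set to 1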
In short: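 One-point screen: peptide + pyranine-loaded LUVs, 30 min RT with vortexing, 96-well. Read-out is fluorescence intensity scaled as 100 × (Ix – I0)/(Imax – I0). Imax from Triton X-100, I0 from untreated vesicles, and the mean of the two control wells is set to 1.00.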

| Structure (SMILES) | cell viability/% [1] [%] | antibacterial activity [2] | H+/Na+ transport activity normalized against the value of 1 (1.00) [3] |
| --- | --- | --- | --- |
| CNC(=O)C[C@@H](NC(=O)[C@H](Cc1c[nH]c2ccccc12)NC(=O)[C@H](NC(=O)[C@@H](NC(=O)[C@@H](CC(C)C)NC(=O)[C@H](C)NC(=O)[C@@H](CC(C)C)NC(=O)[C@H](C)NC(=O)CNC(=O)[C@@H](NC=O)C(C)C)C(C)C)C(C)C)C(=O)N[C@@H](Cc1c[nH]c2ccccc12)C(=O)N[C@H](CC(C)C)C(=O)N[C@@H](Cc1c[nH]c2ccccc12)C(=O)N[C@@H](C(=O)N[C@@H](Cc1c[nH]c2ccccc12)C(=O)NCCO)C(C)C [compound 6889] (For-VGA[dL]A[dL]V[dV]W[dD](NHMe)W[dL]W[dV]W-NHCH2CH2OH) | 100.0 | - | 1.10 |
| CC(C)C[C@@H](NC(=O)[C@H](C)NC(=O)CNC(=O)[C@@H](NC=O)C(C)C)C(=O)N[C@@H](C)C(=O)N[C@@H](C(=O)N[C@H](C(=O)N[C@H](CC(C)C)C(=O)N[C@@H](Cc1c[nH]c2ccccc12)C(=O)N[C@@H](C(=O)N[C@@H](Cc1c[nH]c2ccccc12)C(=O)N[C@H](CC(C)C)C(=O)N[C@@H](Cc1c[nH]c2ccccc12)C(=O)N[C@@H](C(=O)N[C@@H](Cc1c[nH]c2ccccc12)C(=O)NCCO)C(C)C)C(C)C)C(C)C)C(C)C [compound 3633] (For-VGA[dL]A[dV]V[dL]W[dV]W[dL]W[dV]W-NHCH2CH2OH) | 1.7 | - | 1.04 |
| CNC(=O)C[C@@H](NC(=O)[C@@H](NC(=O)[C@@H](CC(C)C)NC(=O)[C@H](C)NC(=O)[C@@H](CC(C)C)NC(=O)[C@H](C)NC(=O)CNC(=O)[C@@H](NC=O)C(C)C)C(C)C)C(=O)N[C@@H](Cc1c[nH]c2ccccc12)C(=O)N[C@@H](C(=O)N[C@@H](Cc1c[nH]c2ccccc12)C(=O)N[C@@H](C(=O)N[C@@H](Cc1c[nH]c2ccccc12)C(=O)N[C@H](CC(C)C)C(=O)N[C@@H](Cc1c[nH]c2ccccc12)C(=O)NCCO)C(C)C)C(C)C [compound 2951] (For-VGA[dL]A[dL]V[dD](NHMe)W[dV]W[dV]W[dL]W-NHCH2CH2OH) | 93.1 | - | 1.10 |
| CNC(=O)C[C@@H](NC(=O)[C@@H](NC(=O)[C@@H](CC(C)C)NC(=O)[C@H](C)NC(=O)[C@H](NC(=O)[C@H](C)NC(=O)CNC(=O)[C@@H](NC=O)C(C)C)C(C)C)C(C)C)C(=O)N[C@@H](Cc1c[nH]c2ccccc12)C(=O)N[C@@H](C(=O)N[C@@H](Cc1c[nH]c2ccccc12)C(=O)N[C@@H](C(=O)N[C@@H](Cc1c[nH]c2ccccc12)C(=O)N[C@@H](C(=O)N[C@@H](Cc1c[nH]c2ccccc12)C(=O)NCCO)C(C)C)C(C)C)C(C)C [compound 8459] (For-VGA[dV]A[dL]V[dD](NHMe)W[dV]W[dV]W[dV]W-NHCH2CH2OH) | 47.5 | - | 1.03 |
| CC(C)C[C@@H](NC(=O)[C@H](Cc1c[nH]c2ccccc12)NC(=O)[C@H](NC(=O)[C@H](Cc1c[nH]c2ccccc12)NC(=O)[C@H](NC(=O)[C@H](Cc1c[nH]c2ccccc12)NC(=O)[C@@H](CC(C)C)NC(=O)[C@@H](NC(=O)[C@H](NC(=O)[C@H](C)NC(=O)[C@H](NC(=O)[C@H](C)NC(=O)CNC(=O)[C@@H](NC=O)C(C)C)C(C)C)C(C)C)C(C)C)C(C)C)C(C)C)C(=O)N[C@@H](Cc1c[nH]c2ccccc12)C(=O)NCCO [compound 97] (For-VGA[dV]A[dV]V[dL]W[dV]W[dV]W[dL]W-NHCH2CH2OH) | 59.7 | + | 1.24 |
| CC(C)C[C@@H](NC(=O)[C@H](C)NC(=O)CNC(=O)[C@@H](NC=O)C(C)C)C(=O)N[C@@H](C)C(=O)N[C@@H](C(=O)N[C@H](C(=O)N[C@@H](C(=O)N[C@@H](Cc1c[nH]c2ccccc12)C(=O)N[C@@H](C(=O)N[C@@H](Cc1c[nH]c2ccccc12)C(=O)N[C@@H](C(=O)N[C@@H](Cc1c[nH]c2ccccc12)C(=O)N[C@@H](C(=O)N[C@@H](Cc1c[nH]c2ccccc12)C(=O)NCCO)C(C)C)C(C)C)C(C)C)C(C)C)C(C)C)C(C)C [compound 9992] (For-VGA[dL]A[dV]V[dV]W[dV]W[dV]W[dV]W-NHCH2CH2OH) | 100.0 | + | 1.23 |
| CC(C)C[C@@H](NC(=O)[C@H](C)NC(=O)CNC(=O)[C@@H](NC=O)C(C)C)C(=O)N[C@@H](C)C(=O)N[C@H](CC(C)C)C(=O)N[C@H](C(=O)N[C@@H](C(=O)N[C@@H](Cc1c[nH]c2ccccc12)C(=O)N[C@@H](C(=O)N[C@@H](Cc1c[nH]c2ccccc12)C(=O)N[C@H](CC(C)C)C(=O)N[C@@H](Cc1c[nH]c2ccccc12)C(=O)N[C@H](CC(C)C)C(=O)N[C@@H](Cc1c[nH]c2ccccc12)C(=O)NCCO)[C@H](C)O)C(C)C)C(C)C [compound 8342] (For-VGA[dL]A[dL]V[dV]W[dT]W[dL]W[dL]W-NHCH2CH2OH) | 54.5 | - | 1.00 |
| CC(C)C[C@@H](NC(=O)[C@H](C)NC(=O)CNC(=O)[C@@H](NC=O)C(C)C)C(=O)N[C@@H](C)C(=O)N[C@@H](C(=O)N[C@H](C(=O)N[C@@H](C(=O)N[C@@H](Cc1c[nH]c2ccccc12)C(=O)N[C@H](CC(C)C)C(=O)N[C@@H](Cc1c[nH]c2ccccc12)C(=O)N[C@H](CC(C)C)C(=O)N[C@@H](Cc1c[nH]c2ccccc12)C(=O)N[C@H](CC(C)C)C(=O)N[C@@H](Cc1c[nH]c2ccccc12)C(=O)NCCO)C(C)C)C(C)C)C(C)C [compound 12972] (For-VGA[dL]A[dV]V[dV]W[dL]W[dL]W[dL]W-NHCH2CH2OH) | 0.0 | ++ | 1.33 |
| CC(C)C[C@@H](NC(=O)[C@H](C)NC(=O)CNC(=O)[C@@H](NC=O)C(C)C)C(=O)N[C@@H](C)C(=O)N[C@@H](C(=O)N[C@H](C(=O)N[C@H](CC(C)C)C(=O)N[C@@H](Cc1c[nH]c2ccccc12)C(=O)N[C@@H](C(=O)N[C@@H](Cc1c[nH]c2ccccc12)C(=O)N[C@H](CC(C)C)C(=O)N[C@@H](Cc1c[nH]c2ccccc12)C(=O)N[C@@H](C(=O)N[C@@H](Cc1c[nH]c2ccccc12)C(=O)NCCO)[C@H](C)O)C(C)C)C(C)C)C(C)C [compound 5058] (For-VGA[dL]A[dV]V[dL]W[dV]W[dL]W[dT]W-NHCH2CH2OH) | 100.0 | - | 1.02 |
| CNC(=O)C[C@@H](NC(=O)[C@@H](NC(=O)[C@H](NC(=O)[C@H](C)NC(=O)[C@H](NC(=O)[C@H](C)NC(=O)CNC(=O)[C@@H](NC=O)C(C)C)C(C)C)C(C)C)C(C)C)C(=O)N[C@@H](Cc1c[nH]c2ccccc12)C(=O)N[C@H](CC(C)C)C(=O)N[C@@H](Cc1c[nH]c2ccccc12)C(=O)N[C@H](CC(C)C)C(=O)N[C@@H](Cc1c[nH]c2ccccc12)C(=O)N[C@H](CC(C)C)C(=O)N[C@@H](Cc1c[nH]c2ccccc12)C(=O)NCCO [compound 6862] (For-VGA[dV]A[dV]V[dD](NHMe)W[dL]W[dL]W[dL]W-NHCH2CH2OH) | 100.0 | - | 1.31 |
| CC(C)C[C@@H](NC(=O)[C@H](C)NC(=O)[C@H](NC(=O)[C@H](C)NC(=O)CNC(=O)[C@@H](NC=O)C(C)C)C(C)C)C(=O)N[C@H](C(=O)N[C@@H](C(=O)N[C@@H](Cc1c[nH]c2ccccc12)C(=O)N[C@@H](C(=O)N[C@@H](Cc1c[nH]c2ccccc12)C(=O)N[C@H](CC(C)C)C(=O)N[C@@H](Cc1c[nH]c2ccccc12)C(=O)N[C@H](CC(C)C)C(=O)N[C@@H](Cc1c[nH]c2ccccc12)C(=O)NCCO)C(C)C)C(C)C)C(C)C [compound 5463] (For-VGA[dV]A[dL]V[dV]W[dV]W[dL]W[dL]W-NHCH2CH2OH) | 100.0 | ++ | 1.11 |
| CNC(=O)C[C@@H](NC(=O)[C@@H](NC(=O)[C@H](NC(=O)[C@H](C)NC(=O)[C@H](NC(=O)[C@H](C)NC(=O)CNC(=O)[C@@H](NC=O)C(C)C)C(C)C)C(C)C)C(C)C)C(=O)N[C@@H](Cc1c[nH]c2ccccc12)C(=O)N[C@@H](C(=O)N[C@@H](Cc1c[nH]c2ccccc12)C(=O)N[C@H](CC(C)C)C(=O)N[C@@H](Cc1c[nH]c2ccccc12)C(=O)N[C@H](CC(C)C)C(=O)N[C@@H](Cc1c[nH]c2ccccc12)C(=O)NCCO)C(C)C [compound 2898] (For-VGA[dV]A[dV]V[dD](NHMe)W[dV]W[dL]W[dL]W-NHCH2CH2OH) | 100.0 | - | 1.13 |
| CC(C)C[C@@H](NC(=O)[C@H](C)NC(=O)[C@H](NC(=O)[C@H](C)NC(=O)CNC(=O)[C@@H](NC=O)C(C)C)C(C)C)C(=O)N[C@H](C(=O)N[C@@H](C(=O)N[C@@H](Cc1c[nH]c2ccccc12)C(=O)N[C@@H](C(=O)N[C@@H](Cc1c[nH]c2ccccc12)C(=O)N[C@H](CC(C)C)C(=O)N[C@@H](Cc1c[nH]c2ccccc12)C(=O)N[C@@H](C(=O)N[C@@H](Cc1c[nH]c2ccccc12)C(=O)NCCO)C(C)C)C(C)C)C(C)C)C(C)C [compound 12950] (For-VGA[dV]A[dL]V[dV]W[dV]W[dL]W[dV]W-NHCH2CH2OH) | 97.0 | + | 1.08 |
